The target of one data set is T1, human NHE-1 (Homo sapiens, UniProt P19634).
T1 construct: expressed in transfected cells; host or cells: LAP-1 cells (parental line has no endogenous NHE activity), G418 selection
In words: FLIPR assay for NHE-1 inhibition by measurement of the recovery in pHi in transfected cell lines. Type of data set: cell-based. To be noted: transfected LAP-1 cell line expressing human NHE-1, BCECF fluorescence, read-out: NHE1 inhibition IC50. The procedure: The NHE-1 inhibition was determined as follows:
FLIPR assay for determining NHE-1 inhibitors by measurement of the recovery in pHi in transfected cell lines which express human NHE-1
The assay is carried out in an FLIPR (fluorescent imaging plate reader) with black-walled 96-well microtiter plates with clear bases.
(The growth medium for the transfected cells (Iscove +10% fetal calf serum) additionally contains G418 as selection antibiotic in order to ensure the presence of the transfected sequences.)
The actual assay starts with the removal of the growth medium and addition of 100 μl of loading buffer per well (5 μM BCECF-AM [2′,7′-bis(carboxyethyl)-5-(and -6)-carboxyfluorescein, acetoxymethyl ester] in 20 mM NH4Cl, 115 mM choline chloride, 1 mM MgCl2, 1 mM CaCl2, 5 mM KCl, 20 mM HEPES, 5 mM glucose; pH 7.4 [adjusted with KOH]). The cells are then incubated at 37° C. for 20 minutes. This incubation leads to loading of the cells with the fluorescent dye whose fluorescence intensity depends on pHi, and with NH4Cl, which makes the cells slightly alkaline. [The nonfluorescent dye precursor BCECF-AM is, -as ester, membrane-permeable. The actual dye BCECF, which is not membrane-permeable, is liberated inside cells by esterases.] […]

Results on 1 compound are retold here after patent US6878748B2, “Fluorinated cycloalkyl-derivatized benzoylguanidines, process for their preparation, their uses as medicament, and medicament containing them” (Aventis Pharma Deutschland GmbH, priority 2002, dated 2005).

Broadly, the melting point is the temperature, or range, at which the solid turns liquid. For orientation: IC50 means the concentration that gives 50% inhibition.

T1 sequence (P19634 whole entry): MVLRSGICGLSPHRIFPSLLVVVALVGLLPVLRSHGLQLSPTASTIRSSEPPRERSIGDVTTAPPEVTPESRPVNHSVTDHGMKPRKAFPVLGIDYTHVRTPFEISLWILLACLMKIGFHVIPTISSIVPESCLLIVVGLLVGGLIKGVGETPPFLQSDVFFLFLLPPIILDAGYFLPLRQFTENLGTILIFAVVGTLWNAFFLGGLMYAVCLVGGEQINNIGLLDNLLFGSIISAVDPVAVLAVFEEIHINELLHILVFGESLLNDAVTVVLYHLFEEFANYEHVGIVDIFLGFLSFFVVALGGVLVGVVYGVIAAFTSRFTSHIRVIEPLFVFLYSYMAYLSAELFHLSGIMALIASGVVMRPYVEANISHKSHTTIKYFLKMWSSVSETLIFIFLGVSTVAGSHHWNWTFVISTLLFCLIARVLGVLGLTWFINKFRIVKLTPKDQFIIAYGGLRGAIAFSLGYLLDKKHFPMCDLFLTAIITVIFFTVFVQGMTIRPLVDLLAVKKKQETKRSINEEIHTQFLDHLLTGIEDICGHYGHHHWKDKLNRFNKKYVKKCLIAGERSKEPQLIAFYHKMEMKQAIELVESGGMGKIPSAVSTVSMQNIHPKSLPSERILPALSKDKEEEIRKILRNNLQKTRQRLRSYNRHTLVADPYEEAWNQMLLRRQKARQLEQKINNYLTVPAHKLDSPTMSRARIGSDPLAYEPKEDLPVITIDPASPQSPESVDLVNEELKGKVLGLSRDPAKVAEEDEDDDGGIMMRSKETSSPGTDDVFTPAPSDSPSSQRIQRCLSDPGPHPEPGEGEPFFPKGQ

As to `[H]/N=C(\N)NC(=O)c1cc(S(C)(=O)=O)c(OC2CC(F)(F)C2)cc1C` [Example 1, N-[4-(3,3-Difluorocyclobutoxy)-5-methanesulfonyl-2-methylbenzoyl]guanidine], the melting point was 273 °C (dec.). Also, the IC50 at human NHE-1 was 5.9 nM.
